{"source": "patent US20170290891A1", "about": "“METHOD OF BONE REGENERATION OR BONE AUGMENTATION” (TOYOBO CO., LTD., priority 2016, published 2017)", "key": {"[1]": {"test_system": "standardized full-thickness bone defect of the calvarium", "test": "Test Example 1: rat calvarium bone defect, OCP or β-TCP collagen composite + teriparatide subcutaneous injection", "type": "in vivo, Male Wistar rats", "excerpt": "Male Wistar rats (12 weeks old) were each intraperitoneally anesthetized, and a skin incision and a periosteal incision were made in the calvarium part to expose the calvarium. A standardized full-thickness bone defect (diameter: about 9 mm), for which spontaneous recovery could not be expected, was created. Then, one OCP/collagen composite disc produced in Production Example 2 or one β-TCP/collagen composite disc produced in Production Example 3 was implanted therein. As the control, rats in which only a bone defect was created, and no sample was implanted (untreated group) were prepared. After the sample was implanted, the periosteum and skin were sutured, and the surgery was completed. […] In the rats of the teriparatide subcutaneous injection group, 10 μg/kg of the teriparatide prepared in Production Example 5 was subcutaneously injected immediately after surgery and every day thereafter. Subcutaneous injection was performed in such a manner that the thawed teriparatide solution was sucked by a 1-mL syringe (27 G injection needle), the back skin was sterilized with a dilute Hibitane solution, and then a considerable amount of teriparatide solution was injected subcutaneously in the back. The observation period after surgery was 8 weeks for each group, and 5 rats were used in each period. […] Similarly, after CT photography 8 weeks after surgery, the rats were euthanized under anesthesia with an excess amount of pentobarbital. […] Then, tissue sections (thickness: […]) cut in the frontal plane were prepared, and a histological search was performed by hematoxylin-eosin staining. Further, using the plural tissue sections corresponding to the center of the defect of each sample, the ratio of new bone (n-Bone %) in the created defect was examined by histological quantification. Variance analysis, etc., were conducted using the average value and standard deviation of n-Bone % in each group, and a significance test was conducted. The significance level was set at 5%."}, "local bone formation": {"test_system": "local bone formation", "conditions": "subcutaneous administration of PTH; NPL 2; cited from earlier work"}}}
{"smiles": "CC[C@H](C)[C@H](NC(=O)[C@H](CCC(=O)O)NC(=O)[C@H](CO)NC(=O)[C@@H](NC(=O)[C@@H](N)CO)C(C)C)C(=O)N[C@@H](CCC(N)=O)C(=O)N[C@@H](CC(C)C)C(=O)N[C@@H](CCSC)C(=O)N[C@@H](Cc1cnc[nH]1)C(=O)N[C@@H](CC(N)=O)C(=O)N[C@@H](CC(C)C)C(=O)NCC(=O)N[C@@H](CCCCN)C(=O)N[C@@H](Cc1cnc[nH]1)C(=O)N[C@@H](CC(C)C)C(=O)N[C@@H](CC(N)=O)C(=O)N[C@@H](CO)C(=O)N[C@@H](CCSC)C(=O)N[C@@H](CCC(=O)O)C(=O)N[C@@H](CCCN=C(N)N)C(=O)N[C@H](C(=O)N[C@@H](CCC(=O)O)C(=O)N[C@@H](Cc1c[nH]c2ccccc12)C(=O)N[C@@H](CC(C)C)C(=O)N[C@@H](CCCN=C(N)N)C(=O)N[C@@H](CCCCN)C(=O)N[C@@H](CCCCN)C(=O)N[C@@H](CC(C)C)C(=O)N[C@@H](CCC(N)=O)C(=O)N[C@@H](CC(=O)O)C(=O)N[C@H](C(=O)N[C@@H](Cc1cnc[nH]1)C(=O)N[C@@H](CC(N)=O)C(=O)N[C@@H](Cc1ccccc1)C(=O)O)C(C)C)C(C)C", "note": "[teriparatide]", "values": [{"measurement": "ratio of new bone (n-Bone %) in the defect", "setting": "[1]; 8 weeks after surgery, PTH groups: teriparatide 10 μg/kg subcutaneously every day, FIG. 5", "value": "31.1±10.2", "unit": "%"}, {"measurement": "X-ray photographs of the bone defect sites, living state (radiopaque image)", "setting": "[1]; FIG. 1, PTH groups: teriparatide 10 μg/kg s.c. daily", "value": "radiopaque images in the defects were equally scarce"}, {"measurement": "X-ray photographs of the calvarium and the surrounding tissue (radiopaque image)", "setting": "[1]; FIG. 2, PTH groups: teriparatide 10 μg/kg s.c. daily", "value": "their thickness was thinner than that of the existing bone"}, {"measurement": "stained pathological specimens, low-magnification (×1.25)", "setting": "[1]; FIG. 3, 8 weeks after surgery, hematoxylin-eosin", "value": "thin bone tissue extending from the defect margins"}, {"measurement": "stained pathological specimens, high-magnification", "setting": "[1]; FIG. 4, 8 weeks after surgery, hematoxylin-eosin", "value": "thin new bone extended from the defect margins"}, {"measurement": "new bone formation (summary of FIGS. 1 to 5)", "setting": "[1]; teriparatide 10 μg/kg s.c. daily, 8 weeks", "value": "new bone formation was not observed"}, {"measurement": "local bone formation", "setting": "local bone formation", "value": "significantly promoted"}]}
